{"source": "patent US11753410B2", "about": "“Hormone receptor modulators for treating metabolic mutagenic and fibrotic conditions and disorders” (priority 2017, dated 2023)", "target": "T1, ligand binding domain of human FXR (Homo sapiens, UniProt Q96RI1)", "T1 construct": "purchased Thermofisher (LanthaScreen) PV4833", "T1 sequence (Q96RI1 262-486 limits assumed)": "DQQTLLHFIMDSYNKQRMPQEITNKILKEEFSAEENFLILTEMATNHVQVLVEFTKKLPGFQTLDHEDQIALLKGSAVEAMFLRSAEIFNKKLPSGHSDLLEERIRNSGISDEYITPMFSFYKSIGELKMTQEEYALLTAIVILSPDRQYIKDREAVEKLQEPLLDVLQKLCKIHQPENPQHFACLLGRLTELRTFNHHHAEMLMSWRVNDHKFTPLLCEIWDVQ", "assay": "biochemical", "conditions": "for Emax: extent of activation relative to GW4064, read-out: Ligand Binding % Efficacy; for EC50: −log EC50, concentration required to produce 50% activation, FRET 520 nm/495 nm, 1 hour at room temperature, read-out: Ligand Binding pEC50 (converted)", "procedure": "The affinity of FXR ligands for the ligand binding domain of FXR was determined using a commercially available human FXR ligand binding assay (LanthaScreen, Thermofisher Cat #PV4833). […] Binding of FXR ligands to the FXR ligand binding domain promotes binding of the fluorescein-labelled SRC2-2 peptide. This causes a FRET signal between the terbium-labelled anti-GST antibody and the fluorescein-labelled SRC peptide which are both bound to the FXR ligand binding domain.\nTest compounds are dissolved in DMSO and a 3-fold serial dilution series is generated, then further diluted into assay buffer. The compounds are mixed with 5 nM GST-tagged FXR ligand binding domain, 5 nM Tb-labelled anti-GST antibody and 500 nM fluorescein-labelled SRC2-2 peptide in a pH7.4 buffer. The reaction is incubated at room temperature for 1 hour, then the FRET signal is measured as the ratio of the 520 nm/495 nm emission following excitation at 340 nm. The change in FRET signal is plotted against the test article concentration and fit to a 3-parameter logistical equation.", "data": [{"smiles": "C[C@@H]1[C@@H]2C[C@@H](C[C@H]2OCc2c(C3CC3)cnn2-c2c(Cl)cccc2Cl)N1c1ccc(C(=O)NS(=O)(=O)C2CC2)c(F)c1", "note": "[Compound I-29, N-(cyclopropanesulfonyl)-4-[(1S,3R,4S,5R)-5-{[4-cyclopropyl-1-(2,6-dichlorophenyl)-1H-pyrazol-5-yl]methoxy}-3-methyl-2-azabicyclo[2.2.1]heptan-2-yl]-2-fluorobenzamide]", "values": [{"measurement": "Emax", "result": 59, "unit": "%"}, {"measurement": "EC50", "result": 200, "unit": "nM"}]}, {"smiles": "O=C(O)CCc1ccc(N2C[C@@H]3C[C@H]2C[C@H]3OCc2c(C3CC3)cnn2-c2c(F)cccc2F)c(F)c1", "note": "[Compound I-35, 3-{4-[(1S,4S,5R)-5-{[4-cyclopropyl-1-(2,6-difluorophenyl)-1H-pyrazol-5-yl]methoxy}-2-azabicyclo[2.2.1]heptan-2-yl]-3-fluorophenyl}propanoic acid]", "values": [{"measurement": "Emax", "result": 152, "unit": "%"}, {"measurement": "EC50", "result": 631, "unit": "nM"}]}, {"smiles": "Cc1cccc(C)c1-n1ncc(C2CC2)c1CO[C@@H]1C[C@@H]2C[C@H]1CN2c1ccc(CCC(=O)O)cc1F", "note": "[Compound I-36, 3-{4-[(1S,4S,5R)-5-{[4-cyclopropyl-1-(2,6-dimethylphenyl)-1H-pyrazol-5-yl]methoxy}-2-azabicyclo[2.2.1]heptan-2-yl]-3-fluorophenyl}propanoic acid]", "values": [{"measurement": "Emax", "result": 134, "unit": "%"}, {"measurement": "EC50", "result": 158, "unit": "nM"}]}, {"smiles": "Cc1cccc(Cl)c1-n1ncc(C2CC2)c1CO[C@@H]1C[C@@H]2C[C@H]1CN2c1ccc(CCC(=O)O)cc1F", "note": "[Compound I-37, 3-{4-[(1S,4S,5R)-5-{[1-(2-chloro-6-methylphenyl)-4-cyclopropyl-1H-pyrazol-5-yl]methoxy}-2-azabicyclo[2.2.1]heptan-2-yl]-3-fluorophenyl}propanoic acid]", "values": [{"measurement": "Emax", "result": 176, "unit": "%"}, {"measurement": "EC50", "result": 39.8, "unit": "nM"}]}, {"smiles": "O=C(O)CCc1ccc(N2C[C@@H]3C[C@H]2C[C@H]3OCc2c(C3CC3)cnn2-c2c(F)cccc2Cl)c(F)c1", "note": "[Compound I-38, 3-{4-[(1S,4S,5R)-5-{[1-(2-chloro-6-fluorophenyl)-4-cyclopropyl-1H-pyrazol-5-yl]methoxy}-2-azabicyclo[2.2.1]heptan-2-yl]-3-fluorophenyl}propanoic acid]", "values": [{"measurement": "Emax", "result": 185, "unit": "%"}, {"measurement": "EC50", "result": 158, "unit": "nM"}]}, {"smiles": "O=C(O)CCc1ccc(N2C(=O)[C@@H]3C[C@H]2C[C@H]3OCc2c(C3CC3)cnn2-c2c(Cl)cccc2Cl)c(F)c1", "note": "[Compound I-39, 3-{4-[(1S,4R,5R)-5-{[4-cyclopropyl-1-(2,6-dichlorophenyl)-1H-pyrazol-5-yl]methoxy}-3-oxo-2-azabicyclo[2.2.1]heptan-2-yl]-3-fluorophenyl}propanoic acid]", "values": [{"measurement": "Emax", "result": 136, "unit": "%"}]}, {"smiles": "O=C(O)C1CC(c2ccc(N3C[C@@H]4C[C@H]3C[C@H]4OCc3c(C4CC4)cnn3-c3c(Cl)cccc3Cl)c(F)c2)C1", "note": "(stereo partly drawn) [Compound I-40, 3-{4-[(1S,4S,5R)-5-{[4-cyclopropyl-1-(2,6-dichlorophenyl)-1H-pyrazol-5-yl]methoxy}-2-azabicyclo[2.2.1]heptan-2-yl]-3-fluorophenyl}cyclobutane-1-carboxylic acid]", "values": [{"measurement": "Emax", "result": 156, "unit": "%"}, {"measurement": "EC50", "result": 31.6, "unit": "nM"}]}]}
